TGI and GI50 data for ten compounds are collected here from PubChem BioAssay (NCI).

Among the test systems are CCRF-CEM leukemia; HCC-2998 colon; HCT-116 colon; HL-60(TB) leukemia; M14 melanoma; NCI-H522 lung; OVCAR-3 ovarian; SK-MEL-28 melanoma; SNB-19 CNS; T-47D breast.
What all share (test): inhibition of tumour cell growth, NCI panel, 48 h

The structures appear in SMILES notation.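 A five-concentration, 48-hour dose response in 96-well plates underlies each endpoint, interpolated linearly between surrounding concentrations. Abbreviation: GI50, concentration required for 50% inhibition of growth. Definition used: TGI = concentration required for complete inhibition of growth.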 Some results are limits rather than exact numbers.

`Cc1cccc2c1CCC21OC(=O)c2c1ccc1ccccc21` (centres undefined): the TGI in the test on CCRF-CEM leukemia is > 100 µM; with HCC-2998 colon it was > 100 µM; with HCT-116 colon it was > 100 µM; in the test with HL-60(TB) leukemia it was 66 µM; in the test with M14 melanoma, 64.8 µM; in the test on NCI-H522 lung it was > 100 µM. Moreover, the TGI with OVCAR-3 ovarian, in the test with SK-MEL-28 melanoma and in the test with SNB-19 CNS was > 100 µM throughout.
On to `CC1=C(/C=C/C(C)=C/C=C/C(C)=C/C(=O)O)C(C)(C)CCC1`, for which the TGI was 70.8 µM in the test with CCRF-CEM leukemia; 66.8 µM in the test with HCC-2998 colon; 64.2 µM in the test on HCT-116 colon; 59.3 µM in the test with HL-60(TB) leukemia; 71.5 µM in the test with M14 melanoma; > 83.7 µM in the test on NCI-H522 lung. In addition, the figures for the TGI in the test on OVCAR-3 ovarian, with SK-MEL-28 melanoma and in the test on SNB-19 CNS were 63.9 µM, > 82.2 µM and > 84.6 µM, respectively.
In the case of `NS(=O)(=O)CC1CC[CH-]CC1.[Cl-].[Cl-].[Cl-].[Cl-].[Cl-].[Sb+5].c1ccncc1`, the GI50 in the test with HCC-2998 colon, with HCT-116 colon, with M14 melanoma, in the test with NCI-H522 lung, with OVCAR-3 ovarian and in the test with SK-MEL-28 melanoma was > 100 µM throughout. For the same compound, the GI50 in the test with SNB-19 CNS and with T-47D breast was > 100 µM in each case. Also, the TGI with HCC-2998 colon, in the test on HCT-116 colon, with M14 melanoma, in the test with NCI-H522 lung, with OVCAR-3 ovarian and with SK-MEL-28 melanoma was > 100 µM each time. The TGI in the test with SNB-19 CNS and in the test on T-47D breast was > 100 µM throughout.
With `O=C1C2C(C(=O)N1c1ccccc1)C1([N+](=O)[O-])C=C3c4ccccc4N(C(=O)c4ccccc4)C32C2C(=O)N(c3ccccc3)C(=O)C21` (centres undefined), the TGI in the test on CCRF-CEM leukemia, with HCC-2998 colon, in the test on HCT-116 colon, with HL-60(TB) leukemia, in the test with M14 melanoma and in the test with NCI-H522 lung was > 100 µM each time. The TGI in the test with OVCAR-3 ovarian, in the test on SK-MEL-28 melanoma and in the test with SNB-19 CNS was > 100 µM in each case.
For the compound `O=C1C2CCN(CC2)C1(CO)CO`, the TGI in the test on CCRF-CEM leukemia was 32.2 µM; in the test with HCT-116 colon it was 30.9 µM; in the test on HL-60(TB) leukemia it was > 78.6 µM; in the test with M14 melanoma it was 38.8 µM; with NCI-H522 lung it was 33.2 µM; with OVCAR-3 ovarian, 31 µM. Besides, the TGI with SK-MEL-28 melanoma was 44.5 µM; in the test on SNB-19 CNS, > 100 µM; with T-47D breast, 45.4 µM.
With `O=C1c2ccccc2-c2c1c1c(O)cccc1n2Cc1ccccn1`, the GI50 with CCRF-CEM leukemia was 29.5 µM; in the test on HCC-2998 colon it was 70.9 µM; with HCT-116 colon it was 63.5 µM; in the test on M14 melanoma it was 70.7 µM; in the test on NCI-H522 lung, > 100 µM; with OVCAR-3 ovarian it was 20.1 µM. Moreover, the GI50 in the test with SK-MEL-28 melanoma, in the test with SNB-19 CNS and in the test on T-47D breast was > 100 µM throughout. The TGI with CCRF-CEM leukemia is > 100 µM; in the test on HCC-2998 colon it was > 100 µM; in the test with HCT-116 colon, > 100 µM; in the test with M14 melanoma, > 100 µM; with NCI-H522 lung, > 100 µM; with OVCAR-3 ovarian it was 69.4 µM. Besides, the TGI in the test on SK-MEL-28 melanoma, with SNB-19 CNS and in the test on T-47D breast was > 100 µM throughout.
As to `NC1=NN(c2ccccc2)C(=O)C1C(=O)C(=O)Nc1nccs1` (centres undefined), the TGI in the test with CCRF-CEM leukemia, in the test with HCC-2998 colon, with HCT-116 colon, in the test on HL-60(TB) leukemia, with M14 melanoma and with NCI-H522 lung was > 100 µM throughout. Also, the TGI with OVCAR-3 ovarian, with SK-MEL-28 melanoma and with SNB-19 CNS was > 100 µM each time.
In the case of `N#Cc1cc(S(=O)(=O)Nc2nnc(-c3ccccc3)c(-c3ccccc3)n2)c(SCc2ccccc2)cc1Cl`, the GI50 is 7.06 µM in the test with CCRF-CEM leukemia; > 100 µM with HCC-2998 colon; 18.5 µM in the test with HCT-116 colon; 19.9 µM in the test on HL-60(TB) leukemia; 27.4 µM in the test with M14 melanoma; 44.5 µM in the test with NCI-H522 lung. Further, the GI50 in the test on OVCAR-3 ovarian was 15.3 µM; with SK-MEL-28 melanoma, 35.2 µM; with SNB-19 CNS, 35.1 µM. Further, the TGI in the test with CCRF-CEM leukemia is > 100 µM; with HCC-2998 colon, > 100 µM; with HCT-116 colon, 36.2 µM; in the test with HL-60(TB) leukemia, 44.8 µM; with M14 melanoma it was 80.4 µM; in the test on NCI-H522 lung, > 100 µM. In addition, the results for the TGI in the test with OVCAR-3 ovarian, in the test on SK-MEL-28 melanoma and with SNB-19 CNS were 31.5 µM, 91.3 µM and > 100 µM, respectively.
As for `CCN(CC)C(=S)SCN1C(=O)c2ccccc2S1(=O)=O`, the GI50 with CCRF-CEM leukemia is < 0.01 µM; in the test on HCC-2998 colon it was 40.8 µM; in the test on HCT-116 colon it was 54.2 µM; in the test on M14 melanoma, 20.9 µM; in the test with NCI-H522 lung it was 0.391 µM; in the test with OVCAR-3 ovarian it was 34.3 µM. The values for the GI50 with SK-MEL-28 melanoma, in the test with SNB-19 CNS and in the test on T-47D breast were 31 µM, 78 µM and 36 µM, respectively. Besides, the TGI was 0.016 µM in the test with CCRF-CEM leukemia; > 78 µM in the test with HCC-2998 colon; > 100 µM in the test with HCT-116 colon; > 82.5 µM with M14 melanoma; > 45 µM in the test on NCI-H522 lung; > 100 µM with OVCAR-3 ovarian. The values for the TGI in the test on SK-MEL-28 melanoma, in the test with SNB-19 CNS and in the test on T-47D breast were > 85.1 µM, > 100 µM and > 100 µM, respectively.
Turning to `N#CC1(C#N)C2C=CC(c3coc4cccc2c34)C1(C#N)C#N` (centres undefined), the TGI in the test with CCRF-CEM leukemia was 6.71 µM; in the test on HCC-2998 colon, 30 µM; with HCT-116 colon, 6.08 µM; in the test on HL-60(TB) leukemia it was 3.44 µM; with M14 melanoma, 25.3 µM; in the test on NCI-H522 lung, 3.4 µM. Further, the TGI in the test on OVCAR-3 ovarian came to 29.9 µM; in the test on SK-MEL-28 melanoma, 10.8 µM; in the test with SNB-19 CNS it was 33.8 µM.
